We go through eleven compounds from article PMC8746798, “Evaluation of 2-Thioxoimadazolidin-4-one Derivatives as Potent Anti-Cancer Agents through Apoptosis Induction and Antioxidant Activation: In Vitro and In Vivo Approaches” (Molecules, 2021).

Structures are written as SMILES. “Also recorded” adds a separate entry of the source.

By IC50 is commonly meant the concentration needed to halve the response being measured. A high value points to weaker potency.

Data set [1] has as its system THLE-2 normal liver cells. Description: MTT assay, normal liver cells. Type of data set: cell-based. Particulars: n = 3. (Tetrazolium dyes change colour on reduction, which living cells bring about.)
A further data set has as its system HepG2 liver cancer cells. Description: MTT assay for cytotoxic screening, HepG2. Type of data set: cell-based, human. Particulars: mean ± SE, n = 3. The protocol:
The in vitro anti-cancer activity was assessed using the MTT assay. […] Staurosporine and 5-FU were used as reference drugs. HepG2 cells (1 × 10^4 cells/well, 96-well plate) were maintained in DMEM media supplemented with 2mML-glutamine (Lonza, Verviers, Belgium) and 10% FBS (Sigma, St. Louis, MO, USA), 1% Penicillin/Streptomycin (Lonza, Verviers, Belgium) according to the routine culture work. Cultures were incubated for 48 h with serial dilutions (0.01, 0.1, 1, 10, 100 µM) of the tested compounds. Finally, cell viability was determined by measuring the absorbance λ570 nm according to the following formula: % of cell viability = (A sapmple/A control) ×100, then IC50 calculation was calculated using GraphPad Prism 7 software.

The nature of data set [2]: Histopathological examination of liver and kidney (H&E). Type of data set: in vivo, mice. Particulars: SEC-bearing mice treated. The protocol:
(§1) We randomly divided 50 mice into groups 5 groups (10 mice in each group): normal control (I) (mice injected intraperitoneally with the same volume of solvent for 14 consecutive days); group II, a group of normal mice treated with compound 4 (mice injected intraperitoneally with newly produced compound 4 at a dose of 6 mg/kg per day for 14 days); group III, solid tumor group (mice were implanted with solid tumor); group IV, group were treated with 5-FU (after 10 days of tumor implantation, mice were treated with 6 mg/kg only once); and group V, solid tumor group were treated with compound 4 (after 10 days of tumor implantation, mice were treated with 6 mg/kg only once). after one day of the previous treatment, 10 mice from each group were sacrificed and tumor weight, tumor volume (length and width of solid femoral tumor), blood and liver samples were obtained from each group. A portion of each blood sample taken was used for complete blood count (CBC) and the rest was centrifuged to obtain the serum. Serum was used for biochemical parameter estimation. The livers were rapidly dissected, washed with isotonic saline, and dried. The experiment design is summarized in Supplementary Figure S3.
(§2) Complete blood counts (CBCs) were counted using an AbbottCELLDYN®1800 Automated Hematology Analyzer (Abbott Park, IL, USA) equipped with an off-the-shelf kit (Abbott Laboratories, Abbott Park, IL, USA). For microscopic histopathological examination, tumor and kidney slices were maintained in 10% formalin, dehydrated with graduated alcohol, embedded in paraffin sections, H&E stained, and hematoxylin stained.
Specimens from mice liver cells were fixed in 10% formalin saline. Then, the samples were dehydrated with ascending series of ethanol and embedded in paraffin. A […] thick section was stained with hematoxylin and eosin and examined under a light microscope.

A short description of data set [3]: Hematological parameters (CBC) in mice. Particulars: SEC-bearing mice, 6 mg/Kg BW. Type of data set: in vivo. On the procedure:
as §1, §2

Data set [4] has as its system Solid Ehrlich carcinoma (SEC). Description: In vivo anti-tumor assay: tumor volume and tumor inhibition ratio. Particulars: SEC-bearing mice, 6 mg/kg; SEC control 5802 mm^3. The protocol: We used adult Swiss albino female mice with average body weight 18–23 g obtained from Theodor Bilharzia Research Institute in Giza, Egypt. Mice were kept under constant conditions of a 12 h light–dark cycle at temperatures below controlled moisture conditions (22 ± 2 °C) with standard laboratory mouse nutrition and water entries. Approval for the experimental protocol was provided from the ethical committee of Suez Canal University for this experimental protocol (approval number REC-06-2020, Faculty of Science, Suez Canal University). Mice were adapted for approximately 10 days before use in the experiment.
Solid Ehrlich carcinoma (SEC) was obtained from the National Cancer Institute (University of Cairo, Egypt). The tumor cell line proliferated in mice after serial implantation of the peritoneal cavity (I.P.) in 0.2 mL of physiological saline containing 1 × 10^6 viable cells for 24 h. […]
We measured the length and width of the tumor using a digital Vernier clipper (Tricle Brand, Shanghai, China), then we calculate the tumor volume using the formula: V = (L × W × W)/2, where V is tumor volume, W is tumor width, and L is tumor length, and calculated the tumor inhibition ratio% using the formula: TIR %= (C − T)/C × 100, where T represents mean tumor volume of treated group and C represents mean tumor volume of the control group.

The nature of data set [5]: Serum biochemical parameters in mice. Type of data set: in vivo. The note with it: SEC-bearing mice, 6 mg/Kg BW. On the procedure: as §1
Evaluation of the activities of aspartate aminotransferase (AST) and alanine aminotransferase (ALT) using a commercial kit (ELITech Clinical Systems, France). The serum albumin level was measured using a kit obtained from STANBIO Company (USA). A commercial kit from the BioDiagnostic Company (Cairo, Egypt) was used to evaluate creatinine and urea levels.

[6] abbreviates: Homo sapiens, THLE-2, mean ± SE.

With `O=C1/C(=C\c2cccs2)NC(=S)N1c1ccccc1` [Compound 7, (E)-3-Phenyl-5-(thiophen-2-ylmethylene)-2-thioxoimidazolidin-4-one], the IC50 in data set [1] (setting [6]) was determined as 15.4 ± 0.74 µM; in the data set on HepG2 liver cancer cells (Homo sapiens, HepG2, 48 h), 0.41 ± 0.009 µM.

`CC(C)C1NC(=S)N(CN2CCOCC2)C1=O` (stereo not drawn) [Compound 10, 5-Isopropyl-3-(morpholinomethyl)-2-thioxoimidazolidin-4-one]: half-maximal inhibition in the data set with HepG2 liver cancer cells (Homo sapiens, HepG2, 48 h) (IC50) was put at 64.8 ± 1.63 µM.

In the data set with HepG2 liver cancer cells (Homo sapiens, HepG2, 48 h), `CN[C@@H]1C[C@H]2O[C@@](C)([C@@H]1OC)n1c3ccccc3c3c4c(c5c6ccccc6n2c5c31)C(=O)NC4` [Staurosporine, reference compound] returned an IC50 of 5.07 ± 0.22 µM.

The compound `O=c1[nH]cc(F)c(=O)[nH]1` [Compound 5-FU, reference compound] had an IC50 in data set [1] (mean ± SE) of 43 ± 1.29 µM. Also, in data set [2], the kidney histopathology entry is recorded as “moderate improvement; also recorded: few tubules show evidence of renal acute tubular injury ATI”; the liver histopathology result is “Hydropic degeneration of hepatocytes, nuclear pyknosis, and karyolysis still occurred”. The compound further came in with an IC50 with HepG2 liver cancer cells (48 h) of 5.18 ± 0.53 µM. Besides, in data set [3] (SEC control 7.52 ± 0.5), the “RBC’s count” value is recorded as 7.5 ± 0.8 ×10^6/µL. This compound showed a Hemoglobin in data set [3] (SEC control 11.8 ± 0.8, mean ± SE n = 9) of 10.6 ± 1.1 g/dL. Further, the “WBC’s count” value in data set [3] (SEC control 16.5 ± 3.4) is given as 13.1 ± 4.1 ×10^3/µL. The “tumor volume on the final day” value in data set [4] was found to be 4177 mm^3. The same compound yielded a Creatinine in data set [5] of 0.8 ± 0.1 mg/dL. Besides, in data set [5] (SEC control 4.01 ± 0.4), the Albumin is recorded as 4.1 ± 0.3 g/dL. For the same compound, the “Total Protein” value in data set [5] (SEC control 6.6 ± 0.4) is listed as 7.2 ± 0.4 g/dL. The Urea in data set [5] (SEC control 25.2 ± 2.3) stood at 26.1 ± 2.7 mg/dL. This compound had an AST in data set [5] (SEC control 48.9 ± 5.5) of 38 ± 4.6 U/L. Further, in data set [5] (SEC control 50 ± 2.7), the ALT is recorded as 39.1 ± 3.6 U/L.

Compound `CN1C(=S)N(CCN2CCOCC2)C(=O)/C1=C\c1ccc2c(c1)OCO2` [Compound 5, (E)-5-(3,4-Methylenedioxybenzylidene)-3-[2-(4-morpholino)ethyl]-1-methyl-2-thioxo-imidazolidin-4-one] showed an IC50 with HepG2 liver cancer cells (Homo sapiens, HepG2, 48 h) of 1.94 ± 0.09 µM.

On to `O=C1NC(=S)N(c2ccccc2)/C1=C/c1cc2ccccc2[nH]1` [Compound 2, (E)-5-((1H-Indol-2-yl)methylene)-1-phenyl-2-thioxoimidazolidin-4-one], for which the IC50 was found to be 16.9 ± 1.11 µM in data set [1] (setting [6]) and 0.18 ± 0.03 µM with HepG2 liver cancer cells (Homo sapiens, HepG2, 48 h).

Turning to `CN1C(=S)NC(=O)/C1=C\c1ccc(N(C)C)cc1` [Compound 3, (E)-5-(4-(Dimethylamino)benzylidene)-1-methyl-2-thioxoimidazolidin-4-one], the IC50 in the data set on HepG2 liver cancer cells (Homo sapiens, HepG2, 48 h) was 8.93 ± 0.75 µM.

The compound `COc1ccc(/C=C2\C(=O)NC(=S)N2c2ccccc2)cc1` [Compound 1, (E)-5-(4-Methoxybenzylidene)-1-phenyl-2-thioxoimidazolidin-4-one] came in with an IC50 in the data set on HepG2 liver cancer cells (Homo sapiens, HepG2, 48 h) of 27.8 ± 0.94 µM.

`CC(C)CC1(CN2CCOCC2)NC(=S)N(CN2CCOCC2)C1=O` (stereo not drawn) [Compound 12, 5-Isobutyl-3,5-bis(morpholinomethyl)-2-thioxoimidazolidin-4-one] displayed an IC50 in the data set with HepG2 liver cancer cells (Homo sapiens, HepG2, 48 h) of 1.13 ± 0.066 µM.

In the data set with HepG2 liver cancer cells (Homo sapiens, HepG2, 48 h), `CC(C)C1(CN2CCCCC2)NC(=S)N(CN2CCCCC2)C1=O` (stereo not drawn) [Compound 11, 5-Isopropyl-3,5-bis(piperidin-1-ylmethyl)-2-thioxoimidazolidin-4-one] returned an IC50 of 1.14 ± 0.05 µM.

For the compound `C=CCN1C(=O)/C(=C\c2ccc(C)cc2)NC1=S` [Compound 6, (E)-3-Allyl-5-(4-methylbenzylidene)-2-thioxoimidazolidin-4-one], the IC50 amounted to 35.1 ± 1.33 µM in data set [1] (setting [6]) and 0.61 ± 0.08 µM in the data set with HepG2 liver cancer cells (Homo sapiens, HepG2, 48 h).
